Experimental data reported in the NIST ThermoML archive (doi:10.1021/je020125e).
Where “and” joins values, the source holds several entries; their conditions need not be identical. Equal entries are not always repeated.

Conditions: 101.33 kPa, Liquid, Hot wire method

CC(C)C(C)C(C)C [2,3,4-trimethylpentane]
Conditions | thermal conductivity [W/m/K] | thermal diffusivity [m2/s]
259.06 K | 0.1127 | –
259.29 K | 0.1126 | –
259.54 K | 0.1125 | –
259.87 K | – | 7.32e-08
260.45 K | – | 7.32e-08
261.06 K | – | 7.31e-08
277.95 K | 0.1083 | –
278.19 K | 0.1082 | –
278.44 K | 0.108 | –
278.74 K | – | 6.91e-08
279.35 K | – | 6.9e-08
279.93 K | – | 6.87e-08
297.33 K | 0.1036 | –
297.58 K | 0.1035 | –
297.84 K | 0.1033 | –
298.16 K | – | 6.57e-08
298.78 K | – | 6.56e-08
299.4 K | – | 6.54e-08
315.53 K | 0.09948 | –
315.77 K | 0.09926 | –
316.03 K | 0.09916 | –
316.35 K | – | 6.19e-08
316.91 K | – | 6.12e-08
317.54 K | – | 6.12e-08
331.87 K | 0.0958 | –
332.13 K | 0.09569 | –
332.39 K | 0.09551 | –
332.69 K | – | 5.9e-08
333.32 K | – | 5.89e-08
333.91 K | – | 5.84e-08

CC(C)C(C)C [2,3-dimethylbutane]
Conditions | thermal conductivity [W/m/K] | thermal diffusivity [m2/s]
256.81 K | 0.1128 | –
257.19 K | 0.1127 | –
257.69 K | 0.1125 | –
258.09 K | – | 7.87e-08
258.98 K | – | 7.85e-08
260.13 K | – | 7.79e-08
277.98 K | 0.1061 | –
278.38 K | 0.1059 | –
278.91 K | 0.1057 | –
279.29 K | – | 7.3e-08
280.19 K | – | 7.27e-08
281.39 K | – | 7.23e-08
297.63 K | 0.1 | –
298.06 K | 0.0999 | –
298.6 K | 0.09972 | –
298.95 K | – | 6.8e-08
299.9 K | – | 6.77e-08
301.09 K | – | 6.74e-08
318.11 K | 0.09429 | –
318.45 K | 0.09416 | –
319.06 K | 0.09398 | –
319.63 K | – | 6.39e-08
320.36 K | – | 6.35e-08
321.67 K | – | 6.31e-08
336.29 K | 0.08957 | –
336.65 K | 0.08944 | –
337.3 K | 0.08925 | –
337.85 K | – | 6.04e-08
338.62 K | – | 6.01e-08
339.96 K | – | 5.97e-08

CCC(C)C(C)C (stereo unspecified) [2,3-dimethylpentane]
Conditions | thermal conductivity | thermal diffusivity
256.3 K | 0.1178 W/m/K | –
256.7 K | 0.1175 W/m/K | –
256.93 K | – | 8.19e-08 m2/s
256.95 K | 0.1173 W/m/K | –
257.7 K | – | 8.09e-08 m2/s
258.3 K | – | 8.05e-08 m2/s
269.57 K | 0.114 W/m/K | –
269.87 K | 0.1137 W/m/K | –
270.12 K | 0.1135 W/m/K | –
270.24 K | – | 7.8e-08 m2/s
270.9 K | – | 7.79e-08 m2/s
271.49 K | – | 7.72e-08 m2/s
284.74 K | 0.1097 W/m/K | –
285.02 K | 0.1093 W/m/K | –
285.27 K | 0.1092 W/m/K | –
285.38 K | – | 7.51e-08 m2/s
286.04 K | – | 7.37e-08 m2/s
286.63 K | – | 7.35e-08 m2/s
296.31 K | 0.1057 W/m/K | –
296.36 K | 0.1063 W/m/K | –
296.65 K | 0.106 W/m/K | –
297 K | – | 7.16e-08 m2/s
297.68 K | – | 7.1e-08 m2/s
298.28 K | – | 7.02e-08 m2/s
311.34 K | 0.1022 W/m/K | –
311.66 K | 0.102 W/m/K | –
311.93 K | 0.1018 W/m/K | –
311.97 K | – | 6.79e-08 m2/s
312.7 K | – | 6.77e-08 m2/s
313.33 K | – | 6.76e-08 m2/s
321.3 K | 0.09959 W/m/K | –
321.59 K | 0.09937 W/m/K | –
321.85 K | 0.09916 W/m/K | –
321.91 K | – | 6.53e-08 m2/s
322.58 K | – | 6.46e-08 m2/s
323.18 K | – | 6.43e-08 m2/s
331.96 K | 0.097 W/m/K | –
332.21 K | 0.09651 W/m/K and 0.09662 W/m/K | –
332.5 K | – | 6.07e-08 m2/s
333.06 K | – | 5.99e-08 m2/s and 6e-08 m2/s
343.12 K | 0.09411 W/m/K | –
343.36 K | 0.09373 W/m/K | –
343.59 K | 0.09353 W/m/K | –
343.64 K | – | 5.78e-08 m2/s
344.2 K | – | 5.72e-08 m2/s
344.73 K | – | 5.72e-08 m2/s

CC(C)CC(C)C [2,4-dimethylpentane]
Conditions | thermal conductivity [W/m/K] | thermal diffusivity [m2/s]
256.59 K | 0.1138 | –
256.99 K | 0.1135 | –
257.3 K | 0.1133 | –
257.56 K | – | 7.9e-08
258.58 K | – | 7.84e-08
259.37 K | – | 7.76e-08
276.3 K | 0.1082 | –
276.69 K | 0.1079 | –
277.04 K | 0.1077 | –
277.29 K | – | 7.41e-08
278.27 K | – | 7.29e-08
279.16 K | – | 7.28e-08
296.19 K | 0.1025 | –
296.63 K | 0.1022 | –
296.97 K | 0.102 | –
297.18 K | – | 6.9e-08
298.25 K | – | 6.83e-08
299.08 K | – | 6.77e-08
316.55 K | 0.09692 | –
317.01 K | 0.09668 | –
317.37 K | 0.09645 | –
317.55 K | – | 6.43e-08
318.67 K | – | 6.39e-08
319.53 K | – | 6.32e-08
333.96 K | 0.0924 | –
334.43 K | 0.09213 | –
334.81 K | 0.09197 | –
334.93 K | – | 5.99e-08
336.06 K | – | 5.98e-08
336.97 K | – | 5.96e-08

CCCCCC(C)C [2-methylheptane]
Conditions | thermal conductivity [W/m/K] | thermal diffusivity [m2/s]
259.12 K | 0.1244 | –
259.33 K | 0.1242 | –
259.51 K | 0.1242 | –
260.04 K | – | 8.23e-08
260.63 K | – | 8.22e-08
261.12 K | – | 8.22e-08
277.53 K | 0.1195 | –
277.77 K | 0.1194 | –
277.96 K | 0.1193 | –
278.48 K | – | 7.83e-08
279.11 K | – | 7.84e-08
279.63 K | – | 7.81e-08
295.72 K | 0.1145 | –
295.95 K | 0.1144 | –
296.16 K | 0.1143 | –
296.69 K | – | 7.41e-08
297.31 K | – | 7.42e-08
297.85 K | – | 7.39e-08
313.83 K | 0.1097 | –
314.07 K | 0.1095 | –
314.3 K | 0.1095 | –
314.83 K | – | 7.05e-08
315.46 K | – | 7.04e-08
316.05 K | – | 7.06e-08
327.74 K | 0.1061 | –
328 K | 0.1059 | –
328.23 K | 0.1058 | –
328.77 K | – | 6.82e-08
329.44 K | – | 6.79e-08
330.02 K | – | 6.78e-08

CCCCC(C)C [2-methylhexane]
Conditions | thermal conductivity [W/m/K] | thermal diffusivity [m2/s]
256.24 K | 0.1227 | –
256.67 K | 0.1226 | –
257.02 K | 0.1224 | –
257.46 K | – | 8.41e-08
258.65 K | – | 8.33e-08
259.64 K | – | 8.28e-08
275.56 K | 0.1172 | –
276 K | 0.1168 | –
276.39 K | 0.1167 | –
276.83 K | – | 8e-08
278.06 K | – | 7.86e-08
279.12 K | – | 7.85e-08
296.46 K | 0.1109 | –
296.93 K | 0.1106 | –
297.4 K | 0.1105 | –
297.8 K | – | 7.5e-08
299.08 K | – | 7.43e-08
300.34 K | – | 7.38e-08
317.4 K | 0.1049 | –
317.92 K | 0.1047 | –
318.35 K | 0.1045 | –
318.77 K | – | 7.02e-08
320.16 K | – | 6.96e-08
321.33 K | – | 6.94e-08
337.1 K | 0.09956 | –
337.65 K | 0.0992 | –
338.11 K | 0.09905 | –
338.49 K | – | 6.63e-08
339.91 K | – | 6.52e-08
341.12 K | – | 6.49e-08
